Data: ChEMBL document CHEMBL4665718, “Inhibitory effect of oolonghomobisflavan B on osteoclastogenesis by suppressing p38 MAPK activation” (Bioorg Med Chem Lett, 2020)
Calls of active or inactive are those of the source. No cut-off for these calls is given here.

How the values were obtained:
BMDM [1] = experiment: Modulation of NF-kappaB in Sprague-Dawley rat BMM assessed as inhibition of M-CSF/RANKL-induced osteoclast differentiation by measuring decrease in TRAP-positive multinucleated cells at 100 uM measured after 5 days by TRAP-staining based assay relative to control; assay type: tissue-based; settings: filed as modulator, time 5.0 day
BMDM [2] = experiment: Inhibition of RANKL-induced JNK activation in BMM (unknown origin) at 5 uM pretreated for 1 hr followed by RANKL stimulation for 5 to 15 mins by Western blot analysis; assay type: tissue-based
[3] = molecular target: T1, NF-kappa-B inhibitor alpha (Homo sapiens) (UniProt P25963); experiment: Inhibition of RANKL-induced IkappaB-alpha activation in BMM (unknown origin) at 5 uM pretreated for 1 hr followed by RANKL stimulation for 5 to 15 mins by Western blot analysis; assay type: tissue-based
T1 sequence (whole entry): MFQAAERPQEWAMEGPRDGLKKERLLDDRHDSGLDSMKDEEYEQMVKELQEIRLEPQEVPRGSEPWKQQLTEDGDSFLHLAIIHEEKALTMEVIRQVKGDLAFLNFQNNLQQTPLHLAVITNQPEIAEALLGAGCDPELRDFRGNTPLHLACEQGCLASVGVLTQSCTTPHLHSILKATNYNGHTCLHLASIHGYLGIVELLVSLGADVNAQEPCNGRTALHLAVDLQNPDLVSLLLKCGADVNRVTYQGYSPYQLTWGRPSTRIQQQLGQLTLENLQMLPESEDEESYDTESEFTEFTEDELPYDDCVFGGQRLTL

BMDM [4] = experiment: Inhibition of M-CSF-induced Akt activation in BMM (unknown origin) at 5 uM pretreated for 1 hr followed by M-CSF stimulation for 5 to 30 mins by Western blot analysis; assay type: tissue-based
BMDM [5] = experiment: Inhibition of RANKL-induced Akt activation in BMM (unknown origin) at 5 uM pretreated for 1 hr followed by RANKL stimulation for 5 to 15 mins by Western blot analysis; assay type: tissue-based
BMDM [6] = experiment: Inhibition of p38 MAPK in BMM (unknown origin) assessed as suppression of RANKL/M-CSF-induced MMP9 gene upregulation at 5 uM measured after 3 days by RT-PCR analysis; assay type: tissue-based; settings: time 3.0 day
BMDM [7] = experiment: Inhibition of p38 MAPK in BMM (unknown origin) assessed as suppression of RANKL/M-CSF-induced CTSK gene upregulation at 5 uM measured after 3 days by RT-PCR analysis; assay type: tissue-based; settings: time 3.0 day
BMDM [8] = experiment: Inhibition of p38 MAPK in BMM (unknown origin) assessed as inhibition of M-CSF/RANKL-induced osteoclastogenesis by measuring reduction in multinucleated TRAP+ cells at 5 uM measured after 4 days by TRAP-staining based analysis relative to control; assay type: cell-based; settings: time 4.0 day
BMDM [9] = experiment: Inhibition of p38 MAPK in BMM (unknown origin) assessed as suppression of RANKL/M-CSF-induced Nftac1 upregulation at 5 uM measured after 3 days by Western blot analysis; assay type: tissue-based; settings: time 3.0 day
BMDM [10] = experiment: Inhibition of p38 MAPK in BMM (unknown origin) assessed as suppression of RANKL/M-CSF-induced Nftac1 gene upregulation at 5 uM measured after 3 days by RT-PCR analysis; assay type: tissue-based; settings: time 3.0 day
[11] = Cytotoxicity against BMM (unknown origin) assessed as reduction in cell viability at 5 uM after 3 days in presence of M-CSF by MTT assay; assay type: tissue-based; settings: bmdm, 72 h, time 3 day
BMDM [12] = experiment: Inhibition of p38 MAPK in BMM (unknown origin) assessed as inhibition of RANKL/M-CSF-induced osteoclast differentiation by measuring reduction in TRAP-positive multinucleated cells at 5 uM treated on day 0-4 by TRAP staining based assay; settings: time 4.0 day
BMDM [13] = experiment: Inhibition of p38 MAPK in BMM (unknown origin) assessed as suppression of RANKL/M-CSF-induced DCSTAMP gene upregulation at 5 uM measured after 3 days by RT-PCR analysis; assay type: tissue-based; settings: time 3.0 day
BMDM [14] = experiment: Inhibition of RANKL-induced p38 activation in BMM (unknown origin) at 5 uM pretreated for 1 hr followed by RANKL stimulation for 5 to 15 mins by Western blot analysis; assay type: tissue-based
BMDM [15] = experiment: Inhibition of p38 MAPK in BMM (unknown origin) assessed as suppression of RANKL/M-CSF-induced actin ring formation at 5 uM incubated for 4 days by rhodamine phallodin/DAPI staining based analysis; settings: time 4.0 day
BMDM [16] = experiment: Inhibition of p38 MAPK in BMM (unknown origin) assessed as inhibition of RANKL/M-CSF-induced osteoclast differentiation by measuring reduction in TRAP-positive multinucleated cells at 5 uM treated on day 2-4 by TRAP staining based assay relative to control; settings: time 3.0 day
BMDM [17] = experiment: Inhibition of p38 MAPK in BMM (unknown origin) assessed as inhibition of RANKL/M-CSF-induced osteoclast differentiation by measuring reduction in TRAP-positive multinucleated cells at 5 uM treated on day 0-2 by TRAP staining based assay relative to control; assay type: tissue-based; settings: time 2.0 day
BMDM [18] = experiment: Inhibition of p38 MAPK in BMM (unknown origin) assessed as suppression of RANKL/M-CSF-induced CTSK upregulation at 5 uM measured after 3 days by Western blot analysis; assay type: tissue-based; settings: time 3.0 day
BMDM [19] = experiment: Inhibition of M-CSF-induced ERK activation in BMM (unknown origin) at 5 uM pretreated for 1 hr followed by M-CSF stimulation for 5 to 30 mins by Western blot analysis; assay type: tissue-based
BMDM [20] = experiment: Inhibition of p38 MAPK in BMM (unknown origin) assessed as inhibition of M-CSF/RANKL-induced osteoclastogenesis by measuring reduction in multinucleated TRAP+ cells measured after 4 days by TRAP-staining based analysis; assay type: cell-based; settings: dose microM 1-5, time 4.0 day
BMDM [21] = experiment: Inhibition of p38 MAPK in BMM (unknown origin) assessed as suppression of RANKL/M-CSF-induced Acp5 gene upregulation at 5 uM measured after 3 days by RT-PCR analysis; assay type: tissue-based; settings: time 3.0 day
BMDM [22] = experiment: Inhibition of RANKL-induced ERK activation in BMM (unknown origin) at 5 uM pretreated for 1 hr followed by RANKL stimulation for 5 to 15 mins by Western blot analysis; assay type: tissue-based

SMILES: O=C(O[C@@H]1Cc2c(O)cc(O)cc2O[C@@H]1c1cc(O)c(O)c(O)c1)c1cc(O)c(O)c(O)c1
- inhibition (BMDM [1]): 92%

SMILES: O=C(O[C@@H]1Cc2c(cc(O)c(Cc3c(O)cc(O)c4c3O[C@H](c3cc(O)c(O)c(O)c3)[C@H](OC(=O)c3cc(O)c(O)c(O)c3)C4)c2O)O[C@@H]1c1cc(O)c(O)c(O)c1)c1cc(O)c(O)c(O)c1
- inhibition (BMDM [2]): inactive
- inhibition [3]: inactive
- inhibition (BMDM [4]): inactive
- inhibition (BMDM [5]): inactive
- inhibition (BMDM [6]): Active
- inhibition (BMDM [7]): Active
- inhibition (BMDM [8]): 98.1%
- inhibition (BMDM [9]): Active
- inhibition (BMDM [10]): Active
- Activity [11]: Non-Toxic
- inhibition (BMDM [12]): Active
- inhibition (BMDM [13]): Active
- inhibition (BMDM [14]): Active
- inhibition (BMDM [15]): Active
- inhibition (BMDM [16]): 34.5%
- inhibition (BMDM [17]): 95.9%
- inhibition (BMDM [18]): Active
- inhibition (BMDM [19]): inactive
- inhibition (BMDM [20]): Dose-dependent effect
- inhibition (BMDM [21]): Active
- inhibition (BMDM [22]): inactive
